{"source": "patent US20070160691A1", "about": "“Pharmaceutical composition for treating and preventing cancer comprising cinnamoni cortex extract and zizyphi fructus extract” (KOREA RESEARCH INSTITUTE OF BIOSCIENCE AND BIOTECH, priority 2003, published 2007)", "key": {"[1]": {"test_system": "PARP (poly(ADP-ribose) polymerase) in MDA-MB-231 breast cancer cells", "assay": "PARP cleavage by Western blotting", "type": "cell-based", "conditions": "MDA-MB-231 cells, 10 μM and 30 μM HCA, 48 hrs, compared to DMSO; FIG. 2", "description": "(§1) MDA-MB-231 breast cancer cells and SW620 colon cancer cells were seeded onto 100-mm culture dishes at densities of 1×10^6 and 2×10^6 cells, respectively. After 18 hrs, the cells were treated with 10 μM and 30 μM of HCA and further cultured for 48 hrs.\n(§2) Then, to analyze PARP (poly(ADP-ribose) polymerase) cleavage by the HCA treatment, the cells were lysed using RIPA buffer (50 mM Tris-HCl, pH 7.4, 150 mM NaCl, 5 mM EDTA, 1% NP-40, 1 mM sodium vanadate, 0.5% sodium deoxycholate, and 0.05% sodium deoxysulfate). The cell lysates were centrifuged at 13,000 rpm and the supernatants were recovered. In the supernatants, protein concentrations were determined using a Bradford reagent (Bio-Rad Protein Assay, USA). Protein samples of 30 μg were separated on a 7.5% SDS-PAGE (SDS-polyacrylamide gel electrophoresis) gel. Proteins were then electro-transferred onto a PVDF membrane. The blot was blocked using 5% skim milk in TBST (50 mM Tris-HCl, pH 7.6, 150 mM NaCl, 0.1% Tween 20). Intracellular PARP was detected using a PARP-specific antibody (Cell signaling Technology, USA), a HRP (horse radish peroxidase)-conjugated secondary antibody, and a chemiluminescence POD reagent (Roche, Germany)."}, "[2]": {"test_system": "MDA-MB-231 breast cancer cells", "assay": "DNA fragmentation (apoptosis induction), agarose gel electrophoresis", "type": "cell-based", "conditions": "MDA-MB-231 cells, 10 μM and 30 μM HCA, 48 hrs, compared to DMSO; FIG. 1", "description": "(§3) MDA-MB-231 breast cancer cells and SW620 colon cancer cells were seeded onto 100-mm culture dishes at densities of 1×10^6 and 2×10^6 cells, respectively. After 18 hrs, the cells were treated with 10 μM and 30 μM of 2′-hydroxycinnamaldehyde(HCA) and further cultured for 48 hrs.\n(§4) Then, to analyze DNA cleavage by the HCA treatment, the cells were lysed using RIPA buffer (50 mM Tris-HCl, pH 7.4, 150 mM NaCl, 5 mM EDTA, 1% NP-40, 1 mM sodium vanadate, 0.5% sodium deoxycholate, and 0.05% sodium deoxysulfate). The cell lysates were centrifuged at 13,000 rpm. The supernatants were subjected to phenol extraction to remove proteins, and the nucleic acid layers were recovered. Potassium acetate was added to each nucleic acid layer in a final concentration of 50 mM, and an equal volume of isopropyl alcohol was added thereto to precipitate nucleic acids. The precipitated nucleic acids were washed with 80% ethanol and dried. The dried nucleic acids were dissolved in 30 μl of TE buffer, and treated with Dnase-free RNase at 37° C. for 1 hr to remove RNA.\n(§5) The resulting DNA samples were electrophoresed on a 1.5% agarose gel to investigate DNA fragmentation by HCA."}, "[3]": {"test_system": "PARP (poly(ADP-ribose) polymerase) in SW620 colon cancer cells", "assay": "PARP cleavage by Western blotting", "type": "cell-based, human", "conditions": "10 μM and 30 μM HCA, 48 hrs, compared to DMSO, FIG. 2", "description": "as §1, §2"}, "SW620 colon cancer cells": {"test_system": "SW620 colon cancer cells", "assay": "DNA fragmentation (apoptosis induction), agarose gel electrophoresis", "type": "cell-based, human", "conditions": "10 μM and 30 μM HCA, 48 hrs, compared to DMSO, FIG. 1", "description": "as §3, §4, §5"}, "[4]": {"test_system": "MDA-MB-231 breast cancer cells", "assay": "Cancer cell migration assay in Boyden chamber", "type": "cell-based", "conditions": "6 hrs, FIG. 3", "description": "Cultured MDA-MB-231 breast cancer cells were detached from culture dishes using a trypsin/EDTA solution (Gifco, USA), neutralized with trypsin inhibitor (0.5 mg/ml, Sigma, USA), and washed twice with culture medium. The cells were then counted using a hematocytometer. Cell migration was assayed using a Boyden chamber. HCA was added to a lower compartment of the Boyden chamber through holes with concentrations of 0 μM, 1 μM, 5 μM and 10 μM. After the lower compartment of the Boyden chamber was covered with a polycarbonate membrane (8 μm pore, Neuro Probe, Inc, USA), an upper compartment of the Boyden chamber was assembled with the lower compartment, and […] MDA-MB-231 cells were inoculated in the upper compartment through holes. After the Boyden chamber was incubated in an incubator for 6 hrs, the membrane was immersed in methanol to fix the cells. Then, the membrane was air-dried, stained with a 10% Girkmsa staining solution (Sigma, USA)for 1 hr, and destained with water for 10 sec. Herein, after non-migratedcells (an upper side of the membrane) were removed using a swab, migrated cells (a lower side of the membrane) were counted under a microscope."}}, "data": [{"smiles": "O=C/C=C/c1ccccc1O", "note": "[HCA, 2′-hydroxycinnamaldehyde]", "values": [{"measurement": "PARP cleavage", "setting": "[1]", "value": "a decrease in normal full-length PARP (116 kDa) and an increase in cleaved PARP (89 kDa)"}, {"measurement": "DNA fragmentation by HCA", "setting": "[2]", "value": "fragmentation of chromosonal DNA into uniform DNA fragments"}, {"measurement": "PARP cleavage", "setting": "[3]", "value": "a decrease in normal full-length PARP (116 kDa) and an increase in cleaved PARP (89 kDa)"}, {"measurement": "DNA fragmentation by HCA", "setting": "SW620 colon cancer cells", "value": "fragmentation of chromosonal DNA into uniform DNA fragments"}, {"measurement": "inhibition at 30 µM", "setting": "[4]; Homo sapiens, MDA-MB-231, at 30 μM", "value": "> 50", "unit": "%"}, {"measurement": "inhibition of cell migration", "setting": "[4]; at 5 μM", "value": "inhibited cell migration"}]}]}
